Measured values reported in ChEMBL document CHEMBL3885861, “Open TG-GATES”.

Organism: Rattus norvegicus
Experiment: Open TG-GATES - Regimen: Daily Repeat
Assay type: toxicity, organism-based, Sprague-Dawley
Parameters: regimen Daily Repeat, gender Male, age 6 weeks
Conditions: in vivo, po, route gavage; for APTT / Bas / Eos / Fbg / Hb / Ht / Lym / MCH / MCHC / MCV / Mono / PT / Plat / RBC / Ret / WBC / Neu: tissue Blood; for ALP / ALT / BUN / CRE / DBIL / GLC / IP / K / LDH / Na / PL / RALB / TBIL / TC / TG / TP / gamma-GTP: tissue Plasma
[1] = 0 mg/kg, 72 h, dose level Control, time 3 day
[2] = 0 mg/kg, […], dose level Control, time 7 day
[3] = 0 mg/kg, […], dose level Control, time 14 day
[4] = 0 mg/kg, […], dose level Control, time 28 day
[5] = 60 mg/kg, 72 h, dose level Low, time 3 day
[6] = 60 mg/kg, […], dose level Low, time 7 day
[7] = 60 mg/kg, […], dose level Low, time 14 day
[8] = 60 mg/kg, […], dose level Low, time 28 day

For `CCN(CC)C(=S)SSC(=S)N(CC)CC`, the TERMINAL_BW [1] was 228.6 g, the APTT [1] was 22.7 s and the Bas [1] was 0%. The Eos [1] was 0.8%, the Fbg [1] was 295 mg/dL and the Hb [1] was 12.5 g/dL. It also gave a Ht [1] of 38.7%, a Lym [1] of 81.8% and an MCH [1] of 20.5 pg. It also gave an MCHC [1] of 32.2%, an MCV [1] of 63.6 fL and a Mono [1] of 2.4%. For the same compound, the PT [1] was 16.3 s, the Plat [1] was 112 x10_4/uL and the RBC [1] was 609 x10_4/ul. The Ret [1] was 7%, the WBC [1] was 78.4 x10_2/uL and the ALP [1] was 1421 IU/L. It also gave an ALT [1] of 42.6 IU/L, a BUN [1] of 17.6 mg/dL and a CRE [1] of 0.2 mg/dL. The DBIL [1] was 0 mg/dL, the GLC [1] was 192.2 mg/dL and the IP [1] was 7.8 mg/dL. For the same compound, the K [1] was 4.2 meq/L, the LDH [1] was 190.4 IU/L and the Na [1] was 142.6 meq/L. For the same compound, the PL [1] was 136.8 mg/dL, the RALB [1] was 3.1 g/dL and the TBIL [1] was 0.002 mg/dL. For the same compound, the TC [1] was 73.4 mg/dL, the TG [1] was 91.6 mg/dL and the TP [1] was 5.5 g/dL. For the same compound, the gamma-GTP [1] was 1.4 IU/L, the TERMINAL_BW [2] was 265.7 g and the TERMINAL_BW [3] was 313.3 g. The TERMINAL_BW [4] was 364.4 g, the APTT [2] was 22.1 s and the Bas [2] was 0%. The Eos [2] was 0.8%, the Fbg [2] was 315 mg/dL and the Hb [2] was 12.8 g/dL. The Ht [2] was 39.2%, the Lym [2] was 82% and the MCH [2] was 20.3 pg. It also gave an MCHC [2] of 32.6%, an MCV [2] of 62.3 fL and a Mono [2] of 2.8%. The PT [2] was 16.4 s, the Plat [2] was 116.8 x10_4/uL and the RBC [2] was 629 x10_4/ul. It also gave a Ret [2] of 6.3%, a WBC [2] of 134.5 x10_2/uL and an APTT [3] of 23.7 s. For the same compound, the Bas [3] was 0%, the Eos [3] was 1% and the Fbg [3] was 311.2 mg/dL. It also gave a Hb [3] of 13.9 g/dL, a Ht [3] of 41.2% and a Lym [3] of 82.4%. For the same compound, the MCH [3] was 20.1 pg, the MCHC [3] was 33.9% and the MCV [3] was 59.4 fL. The Mono [3] was 2%, the Neu [3] was 13.4% and the PT [3] was 16.3 s. It also gave a Plat [3] of 112 x10_4/uL, an RBC [3] of 693.4 x10_4/ul and a Ret [3] of 4.9%. It also gave a WBC [3] of 133.7 x10_2/uL, an APTT [4] of 24.8 s and a Bas [4] of 0%. It also gave an Eos [4] of 1.2%, a Fbg [4] of 321.4 mg/dL and a Hb [4] of 15.2 g/dL. For the same compound, the Ht [4] was 44.8%, the Lym [4] was 83.2% and the MCH [4] was 19.5 pg. For the same compound, the MCHC [4] was 34%, the MCV [4] was 57.5 fL and the Mono [4] was 2.2%. For the same compound, the Neu [4] was 12.2%, the PT [4] was 16.6 s and the Plat [4] was 98.2 x10_4/uL. The RBC [4] was 780.6 x10_4/ul, the Ret [4] was 2.8% and the WBC [4] was 121 x10_2/uL. For the same compound, the ALP [2] was 1448.6 IU/L, the ALT [2] was 43.6 IU/L and the BUN [2] was 17.4 mg/dL. The CRE [2] was 0.2 mg/dL, the DBIL [2] was 0 mg/dL and the GLC [2] was 203.8 mg/dL. For the same compound, the IP [2] was 7.9 mg/dL, the K [2] was 4.5 meq/L and the LDH [2] was 223 IU/L. For the same compound, the Na [2] was 142 meq/L, the PL [2] was 138.4 mg/dL and the RALB [2] was 3.1 g/dL. It also gave a TBIL [2] of 0.008 mg/dL, a TC [2] of 71.4 mg/dL and a TG [2] of 106.6 mg/dL. For the same compound, the TP [2] was 5.5 g/dL, the gamma-GTP [2] was 2.2 IU/L and the ALP [3] was 1430.8 IU/L. For the same compound, the ALT [3] was 45 IU/L, the BUN [3] was 20.8 mg/dL and the CRE [3] was 0.2 mg/dL. For the same compound, the DBIL [3] was 0 mg/dL, the GLC [3] was 204.2 mg/dL and the IP [3] was 7.4 mg/dL. It also gave a K [3] of 4.4 meq/L, an LDH [3] of 167 IU/L and a Na [3] of 141.2 meq/L. It also gave a PL [3] of 143 mg/dL, an RALB [3] of 3.2 g/dL and a TBIL [3] of 0 mg/dL. The TC [3] was 73.6 mg/dL, the TG [3] was 91.4 mg/dL and the TP [3] was 5.8 g/dL. The gamma-GTP [3] was 2.6 IU/L, the ALP [4] was 1127.4 IU/L and the ALT [4] was 35 IU/L. The BUN [4] was 18.4 mg/dL, the CRE [4] was 0.2 mg/dL and the DBIL [4] was 0 mg/dL. The GLC [4] was 202.8 mg/dL, the IP [4] was 6.8 mg/dL and the K [4] was 4 meq/L. For the same compound, the LDH [4] was 154.8 IU/L, the Na [4] was 143.2 meq/L and the PL [4] was 145 mg/dL. For the same compound, the RALB [4] was 3.2 g/dL, the TBIL [4] was 0.014 mg/dL and the TC [4] was 76 mg/dL. It also gave a TG [4] of 113.4 mg/dL, a TP [4] of 6 g/dL and a gamma-GTP [4] of 2.6 IU/L. For the same compound, the TERMINAL_BW [5] was 224.7 g, the APTT [5] was 21.1 s and the Bas [5] was 0%. It also gave an Eos [5] of 0.6%, a Fbg [5] of 308.2 mg/dL and a Hb [5] of 12.3 g/dL. The Ht [5] was 38.1%, the MCH [5] was 19.7 pg and the MCHC [5] was 32.2%. The MCV [5] was 61.2 fL, the Mono [5] was 2.2% and the PT [5] was 15.9 s. For the same compound, the Plat [5] was 113.7 x10_4/uL, the RBC [5] was 624.4 x10_4/ul and the Ret [5] was 4.6%. The WBC [5] was 88.7 x10_2/uL, the ALP [5] was 1308.8 IU/L and the ALT [5] was 45.4 IU/L. The BUN [5] was 17.8 mg/dL, the CRE [5] was 0.2 mg/dL and the DBIL [5] was 0 mg/dL. It also gave a GLC [5] of 178.8 mg/dL, an IP [5] of 7 mg/dL and a K [5] of 4.1 meq/L. For the same compound, the LDH [5] was 188 IU/L, the Na [5] was 143.6 meq/L and the PL [5] was 151.6 mg/dL. It also gave an RALB [5] of 3.1 g/dL, a TBIL [5] of 0.004 mg/dL and a TC [5] of 86.2 mg/dL. For the same compound, the TG [5] was 83 mg/dL, the TP [5] was 5.5 g/dL and the gamma-GTP [5] was 1.6 IU/L. It also gave a TERMINAL_BW [6] of 255.2 g, a TERMINAL_BW [7] of 296.1 g and a TERMINAL_BW [8] of 358.2 g. It also gave an APTT [6] of 21.7 s, a Bas [6] of 0% and an Eos [6] of 0.6%. For the same compound, the Fbg [6] was 312.8 mg/dL, the Hb [6] was 12.4 g/dL and the Ht [6] was 38.4%. The MCH [6] was 20.1 pg, the MCHC [6] was 32.3% and the MCV [6] was 62.1 fL. The Mono [6] was 2.4%, the PT [6] was 16 s and the Plat [6] was 129.8 x10_4/uL. The RBC [6] was 620.4 x10_4/ul, the Ret [6] was 7.5% and the WBC [6] was 137.8 x10_2/uL. For the same compound, the APTT [7] was 23.8 s, the Bas [7] was 0% and the Eos [7] was 1%. For the same compound, the Fbg [7] was 319.4 mg/dL, the Hb [7] was 13.9 g/dL and the Ht [7] was 40.9%. For the same compound, the MCH [7] was 19.7 pg, the MCHC [7] was 33.8% and the MCV [7] was 58.2 fL. It also gave a Mono [7] of 2.8%, a PT [7] of 16.1 s and a Plat [7] of 124.6 x10_4/uL. For the same compound, the RBC [7] was 704.6 x10_4/ul, the Ret [7] was 5.1% and the WBC [7] was 126 x10_2/uL. It also gave an APTT [8] of 24 s, a Bas [8] of 0% and an Eos [8] of 1%. The Fbg [8] was 329.2 mg/dL, the Hb [8] was 14.2 g/dL and the Ht [8] was 41.1%. The MCH [8] was 19.2 pg, the MCHC [8] was 34.7% and the MCV [8] was 55.4 fL. It also gave a Mono [8] of 2.2%, a PT [8] of 16.5 s and a Plat [8] of 108.8 x10_4/uL. For the same compound, the RBC [8] was 742.2 x10_4/ul, the Ret [8] was 3.3% and the WBC [8] was 116.8 x10_2/uL. It also gave an ALP [6] of 991.6 IU/L, an ALT [6] of 37.4 IU/L and a BUN [6] of 16.8 mg/dL. The CRE [6] was 0.2 mg/dL, the DBIL [6] was 0 mg/dL and the GLC [6] was 183 mg/dL. For the same compound, the IP [6] was 7 mg/dL, the K [6] was 4.4 meq/L and the LDH [6] was 217.8 IU/L. For the same compound, the Na [6] was 143.6 meq/L, the PL [6] was 142.4 mg/dL and the RALB [6] was 3 g/dL. It also gave a TBIL [6] of 0.012 mg/dL, a TC [6] of 78.4 mg/dL and a TG [6] of 64.2 mg/dL. For the same compound, the TP [6] was 5.5 g/dL, the gamma-GTP [6] was 1.8 IU/L and the ALP [7] was 1244.8 IU/L. It also gave an ALT [7] of 37.6 IU/L, a BUN [7] of 18.6 mg/dL and a CRE [7] of 0.2 mg/dL. The DBIL [7] was 0 mg/dL, the GLC [7] was 178 mg/dL and the IP [7] was 6.2 mg/dL. The K [7] was 4.1 meq/L, the LDH [7] was 146.8 IU/L and the Na [7] was 142 meq/L. The PL [7] was 165.2 mg/dL, the RALB [7] was 3.2 g/dL and the TBIL [7] was 0.004 mg/dL. It also gave a TC [7] of 92.4 mg/dL, a TG [7] of 70.6 mg/dL and a TP [7] of 5.9 g/dL. It also gave a gamma-GTP [7] of 2.8 IU/L, an ALP [8] of 808.4 IU/L and an ALT [8] of 36 IU/L. For the same compound, the CRE [8] was 0.2 mg/dL, the DBIL [8] was 0 mg/dL and the GLC [8] was 183.4 mg/dL. For the same compound, the IP [8] was 5.8 mg/dL, the K [8] was 4 meq/L and the LDH [8] was 106.2 IU/L. It also gave a Na [8] of 142.4 meq/L, a PL [8] of 150.2 mg/dL and an RALB [8] of 3 g/dL. For the same compound, the TBIL [8] was 0.018 mg/dL and the TC [8] was 87.2 mg/dL.
